# Experimental data published in patent US7531534B2, “Heterocyclic antiviral compounds” (Roche Palo Alto LLC, priority 2006, dated 2009).
# pIC50: −log10 of the molar value.
# Target: T1, HCV NS5B570n-BK (Hepatitis C virus genotype 1b, UniProt P26663)
# T1 construct: histidine tag (N); made in house; host or cells: E. coli strain M15
# Experiment: HCV NS5B RNA Polymerase Activity
# Type: biochemical
# Conditions: not given
# Experimental: The enzymatic activity of HCV NS5B570n-BK is measured as incorporation of radiolabeled nucleotide monophosphates into acid insoluble RNA products. Unincorporated radiolabel substrate is removed by filtration and scintillant is added to the washed and dried filter plate containing radiolabeled RNA product. The light emitted by the scintillant is proportional to the amount of RNA product generated by NS5B570n-BK at the endpoint of the reaction.
# The N-terminally histidine tagged HCV polymerase, derived from HCV BK strain, genotype 1b (NS5B570n-BK) contains a 21 amino acid deletion at the C-terminus relative to the full-length HCV polymerase and is purified from E. coli strain M15. The construct containing the coding sequence of HCV BK strain amino acid residues 2421-2999 (GenBank accession number M58335) downstream of a […] promoter expression cassette was inserted into plasmid constructs. The plasmid constructs are transformed in E. coli and colonies are inoculated and grown overnight in 10 L of Terrific broth (Tartoff and Hobbs) supplemented with 100 μg/mL ampicillin at 37° C. Protein expression is induced by addition of 1 mM isopropyl-β-D-thiogalactopyranoside (IPTG), when optical densities reaches between 1.5 and 3.5 OD600 and the culture is then incubated for 16- to 18 h at 22° C. NS5B570n-BK is purified to homogeneity using a three step protocol including subsequent column chromatography on Ni-NTA, SP-Sepharose HP and Superdex 75 resins. […]
# The amount of light emitted from the scintillant is converted to counts per minute (CPM) on a Topcount® plate reader (Perkin-Elmer, Energy Range: Low, Efficiency Mode: Normal, Count Time: 1 min, Background Subtract: none, Cross talk reduction: Off).
# Data is analyzed with GraphPad® Prism® and/or Microsoft® Excel®. […] All data is expressed as a percentage of the positive control. […]
# T1 sequence (P26663 2420-2989): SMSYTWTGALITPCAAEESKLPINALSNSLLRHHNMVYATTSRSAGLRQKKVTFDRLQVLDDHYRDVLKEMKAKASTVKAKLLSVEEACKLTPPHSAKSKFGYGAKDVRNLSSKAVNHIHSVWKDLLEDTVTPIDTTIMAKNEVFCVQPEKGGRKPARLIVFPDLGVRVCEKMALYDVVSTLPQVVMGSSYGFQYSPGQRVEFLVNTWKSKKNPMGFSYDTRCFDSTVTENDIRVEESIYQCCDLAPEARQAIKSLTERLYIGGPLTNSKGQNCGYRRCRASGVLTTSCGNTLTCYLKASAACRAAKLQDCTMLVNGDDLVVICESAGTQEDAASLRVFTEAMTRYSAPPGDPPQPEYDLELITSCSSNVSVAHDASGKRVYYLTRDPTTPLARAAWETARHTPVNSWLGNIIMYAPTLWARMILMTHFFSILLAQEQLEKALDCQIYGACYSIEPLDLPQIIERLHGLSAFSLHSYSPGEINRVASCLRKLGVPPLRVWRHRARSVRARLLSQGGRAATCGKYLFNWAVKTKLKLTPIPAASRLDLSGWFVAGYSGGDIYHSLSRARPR
row,SMILES,pIC50
1,"CC(C)(C)C1C(O)=C(C2=C(C#N)S(=O)(=O)c3cc(NS(C)(=O)=O)ccc3N2)C(=O)N1Cc1ccc(F)cc1 (stereo not shown) [Compound I-19, N-{3-[5-tert-Butyl-1-(4-fluoro-benzyl)-4-hydroxy-2-oxo-2,5-dihydro-1H-pyrrol-3-yl]-2-cyano-1,1-dioxo-1,4-dihydro-1λ^6-benzo[1,4]thiazin-7-yl}-methanesulfonamide]",8.22
2,"CC(C)(C)[C@H]1C(O)=C(C2=C(Cl)S(=O)(=O)c3cc(NS(C)(=O)=O)ccc3N2)C(=O)N1Cc1ccc(F)cc1 [Compound I-3, N-{3-[(S)-5-tert-Butyl-1-(4-fluoro-benzyl)-4-hydroxy-2-oxo-2,5-dihydro-1H-pyrrol-3-yl]-2-chloro-1,1-dioxo-1,4-dihydro-1λ^6-benzo[1,4]thiazin-7-yl}-methanesulfonamide]",8.70

# Same assay, conditions: NS5B570n-BK, poly A:oligo U16, tritiated UTP incorporation; read-out: Polymerase Assay IC50
row,SMILES,pIC50
1,"Cc1cc(CN2C(=O)C(C3=C(F)S(=O)(=O)c4cc(NS(C)(=O)=O)ccc4N3)=C(O)[C@@H]2C(C)(C)C)ccc1F [Compound I-18, N-{3-[(S)-5-tert-Butyl-1-(4-fluoro-3-methyl-benzyl)-4-hydroxy-2-oxo-2,5-dihydro-1H-pyrrol-3-yl]-2-fluoro-1,1-dioxo-1,4-dihydro-1λ^6-benzo[1,4]thiazin-7-yl}-methanesulfonamide]",8.30

# Tested on: Renilla luciferase HCV replicon cells (2209-23)
# Experiment: Renilla luciferase Assay (HCV replicon)
# Type: cell-based
# Conditions: Huh-7, 72 h; replicon cells 2209-23 (Huh7), three days incubation; read-out: R. luciferase Activity IC50
row,SMILES,pIC50
1,"Cc1cc(CN2C(=O)C(C3=C(F)S(=O)(=O)c4cc(NS(C)(=O)=O)ccc4N3)=C(O)[C@@H]2C(C)(C)C)ccc1F [Compound I-18, N-{3-[(S)-5-tert-Butyl-1-(4-fluoro-3-methyl-benzyl)-4-hydroxy-2-oxo-2,5-dihydro-1H-pyrrol-3-yl]-2-fluoro-1,1-dioxo-1,4-dihydro-1λ^6-benzo[1,4]thiazin-7-yl}-methanesulfonamide]",7.80
2,"CC(C)(C)C1C(O)=C(C2=C(C#N)S(=O)(=O)c3cc(NS(C)(=O)=O)ccc3N2)C(=O)N1Cc1ccc(F)cc1 (stereo not shown) [Compound I-19, N-{3-[5-tert-Butyl-1-(4-fluoro-benzyl)-4-hydroxy-2-oxo-2,5-dihydro-1H-pyrrol-3-yl]-2-cyano-1,1-dioxo-1,4-dihydro-1λ^6-benzo[1,4]thiazin-7-yl}-methanesulfonamide]",7.80
3,"CC(C)(C)[C@H]1C(O)=C(C2=C(Cl)S(=O)(=O)c3cc(NS(C)(=O)=O)ccc3N2)C(=O)N1Cc1ccc(F)cc1 [Compound I-3, N-{3-[(S)-5-tert-Butyl-1-(4-fluoro-benzyl)-4-hydroxy-2-oxo-2,5-dihydro-1H-pyrrol-3-yl]-2-chloro-1,1-dioxo-1,4-dihydro-1λ^6-benzo[1,4]thiazin-7-yl}-methanesulfonamide]",8.40

# Tested on: not given
# Experiment: not given
# Conditions: not given
row,SMILES,melting point [°C]
1,CC1=C(C2=C(O)[C@H](C(C)(C)C)N(Cc3ccc(F)cc3)C2=O)Nc2ccc(NS(C)(=O)=O)cc2S1(=O)=O,170 to 174
2,CC(C)(C)[C@H]1C(O)=C(C2=C(Cl)S(=O)(=O)c3cc(NS(C)(=O)=O)ccc3N2)C(=O)N1Cc1ccccc1,148 to 152
3,CC(C)CCN1C(=O)C(C2=C(C#N)S(=O)(=O)c3cc(NS(C)(=O)=O)ccc3N2)=C(O)C1C(C)(C)C (stereo not shown),> 250
4,CC(C)(C)[C@H]1C(O)=C(C2=C(Cl)S(=O)(=O)c3cc(NS(=O)(=O)C4CC4)ccc3N2)C(=O)N1Cc1ccc(F)c(Cl)c1,137 to 141
5,Cc1cc(CN2C(=O)C(C3=C(Cl)S(=O)(=O)c4cc(NS(C)(=O)=O)ccc4N3)=C(O)[C@@H]2C(C)(C)C)ccc1F,140 to 146
6,CCS(=O)(=O)Nc1ccc2c(c1)S(=O)(=O)C(Cl)=C(C1=C(O)[C@H](C(C)(C)C)N(Cc3ccc(F)cc3)C1=O)N2,136 to 140
7,Cc1cc(CN2C(=O)C(C3=C(C#N)S(=O)(=O)c4cc(NS(C)(=O)=O)ccc4N3)=C(O)C2C(C)(C)C)ccc1F (stereo not shown),> 250
8,CCS(=O)(=O)Nc1ccc2c(c1)S(=O)(=O)C(Cl)=C(C1=C(O)[C@H](C(C)(C)C)N(Cc3ccc(F)c(C)c3)C1=O)N2,130 to 135
9,CC(C)(C)[C@H]1C(O)=C(C2=C(Cl)S(=O)(=O)c3cc(NS(C)(=O)=O)ccc3N2)C(=O)N1CCC1CCCC1,137 to 141
10,CC(C)(C)[C@H]1c2oc(=O)c3c(c2C(=O)N1Cc1ccc(F)cc1)Nc1ccc(NS(C)(=O)=O)cc1S3(=O)=O,120
11,COc1cc(CN2C(=O)C(C3=C(C#N)S(=O)(=O)c4cc(NS(C)(=O)=O)ccc4N3)=C(O)C2C(C)(C)C)ccc1F (stereo not shown),218
12,CC(C)(C)C1C(O)=C(C2=C(C#N)S(=O)(=O)c3cc(NS(C)(=O)=O)ccc3N2)C(=O)N1CCC1CCCC1 (stereo not shown),> 250
13,CCS(=O)(=O)Nc1ccc2c(c1)S(=O)(=O)C(Cl)=C(C1=C(O)[C@H](C(C)(C)C)N(CCC(C)C)C1=O)N2,125 to 165
14,CC(C)CCN1C(=O)C(C2=C(Cl)S(=O)(=O)c3cc(NS(C)(=O)=O)ccc3N2)=C(O)[C@@H]1C(C)(C)C,142 to 145
15,CC(C)(C)[C@H]1C(O)=C(C2=C(Cl)S(=O)(=O)c3cc(NS(=O)(=O)C4CC4)ccc3N2)C(=O)N1Cc1ccc(F)cc1,137 to 141
16,CC1=C(C2=C(O)[C@H](C(C)(C)C)N(CCC(C)C)C2=O)Nc2ccc(NS(C)(=O)=O)cc2S1(=O)=O,210 to 215
17,CCS(=O)(=O)Nc1ccc2c(c1)S(=O)(=O)C(Cl)=C(C1=C(O)[C@H](C(C)(C)C)N(Cc3ccc(F)c(Cl)c3)C1=O)N2,140 to 144
18,COc1cc(CN2C(=O)C(C3=C(Cl)S(=O)(=O)c4cc(NS(C)(=O)=O)ccc4N3)=C(O)[C@@H]2C(C)(C)C)ccc1F,139 to 144
19,CC(C)(C)[C@H]1C(O)=C(C2=C(Cl)S(=O)(=O)c3cc(NS(C)(=O)=O)ccc3N2)C(=O)N1Cc1ccc(F)c(Cl)c1,147 to 151
20,Cc1cc(CN2C(=O)C(C3=C(Cl)S(=O)(=O)c4cc(NS(=O)(=O)C5CC5)ccc4N3)=C(O)[C@@H]2C(C)(C)C)ccc1F,127 to 131
21,CC(C)CCN1C(=O)C(C2=C(C(N)=O)S(=O)(=O)c3cc(NS(C)(=O)=O)ccc3N2)=C(O)[C@@H]1C(C)(C)C,150 to 155
22,CN(C)C(=O)C1=C(C2=C(O)[C@H](C(C)(C)C)N(Cc3ccc(F)cc3)C2=O)Nc2ccc(NS(C)(=O)=O)cc2S1(=O)=O,140
23,"CC(C)(C)[C@H]1C(O)=C(C2=C(Cl)S(=O)(=O)c3cc(NS(C)(=O)=O)ccc3N2)C(=O)N1Cc1ccc(F)cc1 [Compound I-3, N-{3-[(S)-5-tert-Butyl-1-(4-fluoro-benzyl)-4-hydroxy-2-oxo-2,5-dihydro-1H-pyrrol-3-yl]-2-chloro-1,1-dioxo-1,4-dihydro-1λ^6-benzo[1,4]thiazin-7-yl}-methanesulfonamide]",144 to 148
24,Cc1cc(CN2C(=O)C(C3=C(C(N)=O)S(=O)(=O)c4cc(NS(C)(=O)=O)ccc4N3)=C(O)[C@@H]2C(C)(C)C)ccc1F,168 to 172

# Tested on: HCV
# Experiment: not given
# Conditions: ribavirin monotherapy; cited from earlier work
row,SMILES,patients in whom serum amino transferase levels are reduced to normal [%]
1,"NC(=O)c1ncn([C@@H]2O[C@H](CO)[C@@H](O)[C@H]2O)n1 [ribavirin, 1-((2R,3R,4S,5R)-3,4-Dihydroxy-5-hydroxymethyl-tetrahydro-furan-2-yl)-1H-[1,2,4]triazole-3-carboxylic acid amide]",40
